Patent publication US8754052B2, “Treatment of nephrolithiasis and urolithiasis using 1,2,3,4,6-penta-O-galloyl-beta-D-glucose (PGG)” (Mayo Foundation for Medical Education and Research, priority 2008, dated 2014)

Key:
[1] = Toxicology study in mice orally fed with PGG; assay type: in vivo, ICR mice; conditions: oral 10, 20 and 40 mg/kg
Protocol: To examine the optimal dose for animal study, a toxicology study was performed in mice orally fed with PGG (10, 20, and 40 mg/kg). Each group consisted of five ICR mice.

hyaluronan = test: Hyaluronan expression by confocal microscopy and Western blot; assay type: cell-based, Canine
Protocol: A middle line was scraped in the confluent MDCK 1 cells grown on coverslips using a 200 μL plastic pipette tip. The MDCK I cells on coverslips were then exposed to various concentrations (1, 5 and 10 μM) of PGG for 15 minutes or 24 hours at 37° C. The coverslips were rinsed three times with PBS, and fixed using 3.7% formaldehyde in PBS for 15 min. Cells were then rinsed three times with PBS and incubated with 1% goat serum for 1 h to block nonspecific binding sites. The goat serum was aspirated and the cells were incubated for 1 hour in a humidified chamber at 37° C. with biotinylated HABP. The cells were then washed with PBS (10 min×3) and then incubated 1 h with an avidin-conjugated Texas red (Molecular Probes, Eugene, Oreg.) in a humidified chamber at 37° C. Cells were again washed with PBS (10 min×3), and the coverslips were mounted onto glass slides using Slow-Fade (Molecular Probes, Eugene, Oreg.). The XZ section was scanned using a LSM 510 confocal microscope (Carl Zeiss, Oberkochen, Germany) equipped with an Axiovert 100M microscope and a c-Apochromat 63/1.2 numerical aperture water-immersion lens. Texas red was excited at 568-nm of an argon-krypton laser and the Emission for Texas red was collected at >585 nm.
For Western blotting, MDCK-I cells with or without scrape-wounding 24 hours earlier were harvested and washed with cold PBS; PGG (1, 5, 10 μM) was added to the medium 15 min or 24 hours prior to harvest. Cells were incubated in lysis buffer (50 mM Tris-HCl (pH 7.4), 150 mM NaCl, 1% Triton X-100, 0.1% SDS and 1 mM EDTA) supplemented with protease inhibitors ([…] and 1 mM of 4-(2-aminoethyl) benzenesulfonyl fluoride) and phosphatase inhibitors (1 mM NaF and 1 mM Na3VO4) for 20 min on ice. Lysates were centrifuged at 14,000 g for 20 min at 4° C. Lysates containing […] of protein were fractionated by SDS-PAGE and electrotransferred to a Hybond ECL transfer membrane (Amersham Pharmacia, Arlington Heights, Ill.). The blocked membranes were then incubated with primary antibodies (1:200 dilution) of HABP. […]

MDCK I cells [2] = test: Cytotoxicity assay (MTT colorimetric assay); assay type: cell-based, Canine
Protocol: (§1) Renal epithelial cells were of the Madin-Darby Canine kidney (MDCK) line, type I, derived from the distal nephron. Cells were grown in DMEM containing 25 mmol/L glucose at 37° C. in a humidified atmosphere containing […] CO2. To prepare high-density, quiescent cultures at 1×10^6 cells/35-mm plastic plate (9.62 cm^2; Nunc, Naperville, Ill., USA) were performed in DMEM containing 10% fetal bovine serum. Two days later when the cells were confluent, the established monolayer was used in the examples that follow.
The effect of PGG on cytotoxicity against MDCK 1 cells was evaluated using a MTT (3-(4,5-dimethylthiazol-2-yl)-2,5-diphenyltetrazolium bromide) colorimetric assay. PGG was dissolved with dimethylsulfoxide (DMSO). The cells were seeded onto 96-well microplates at a density of 1×10^4 cells per well in 100 μL of DMEM containing 10% fetal bovine serum. […] Cells were incubated at 37° C. for 1 h and the optical density was measured using a microplate reader (Molecular Devices Co.) set at 570 nm. Cell viability was calculated as the percentage of viable cells in the PGG treated group versus those in the untreated control group using the following equation: cell viability (%)=[OD (PGG)−OD (Blank)/OD (Control)−OD (Blank)]×100.

[3] = tested on: hyperoxaluric wild type rats; test: Ethylene glycol/ammonium chloride induced nephrolithiasis in hyperoxaluric rats; assay type: in vivo, Harlan Sprague Dawley Rats; conditions: for Serum BUN (mean ± SD) / Serum Calcium (mean ± SD) / Serum Creatinine (mean ± SD) / Serum Phosphate (mean ± SD) / Serum Uric acid (mean ± SD): rat serum; for Urine Calcium / Urine Mean Vol ± SD / Urine Mean pH ± SD: rat urine; for Survival (%): rats
Protocol: Rats were administered PGG, with and without ethylene glycol given to render the rats hyperoxaluric. The effect of PGG on renal crystal deposition was assessed, to confirm the ability of PGG to prevent crystal deposition. Urine of animals was collected and extensively studied to quantitate biochemical and functional changes, and determine the mechanism of the apparent salutary effects, in several studies outlined in Table 1. Functional effects of treated rat urine on crystal nucleation, growth, aggregation and cell interaction was also tested, and compared to urine from control animals.
Six rats per group were treated (see Table 1 below). Harlan Sprague Dawley Rats (300 g) received 0.8% ethylene glycol and 1% ammonium chloride mixed with the drinking water to induce nephrolithiasis, PGG in 2 different doses (4 mg/kg and 20 mg/kg), or both for a full 4 weeks. The doses of PGG covered the range deemed effective in mouse experiments on angiogenesis over a 2-log range factored for relative body size. PGG was administered to all rats via […]. Urine was collected for chemistries and crystalluria quantification at weekly intervals, with full urinary inhibition studies at 3 weeks, and histologic evaluation after week 3. Kidneys were examined quantitatively for the presence of cortical and medullary crystals, as well as interstitial fibrosis, by a blinded observer. Crystal deposition within cortex and medulla were also quantified under polarizing microscopy using Metamorph software.
Twenty four-hour rat urine samples were collected in a metabolic cage with sodium azide as a preservative. Urine was centrifuged, the pellet resuspended, and crystal size and quantity assessed in a hemocytometer.
Spot urine or 24-hr urine samples from individual rats under study were assayed before and after hyperoxaluric treatment. Spot urine samples were collected directly into Eppendorf tubes, centrifuged at 5,000×g for 5 min to dispose of cell debris, and stored at −80° C. until use. Urinary concentrations of oxalate, calcium and other determinants of SS were measured. SS was calculated using the EQUIL2 program.
Urine chemistry and enzymes were evaluated to measure urine pH, […] clearance, the presence and concentration of oxalate, calcium, citrate, and 8-Hydroxy-2′-deoxyguanosine (8-OH-dG). 8-OH-dG has been regarded as a potential marker of oxidative DNA damage induced by ROS. Urinary 8-OHdG was measured using a commercially available competitive 8-OHdG enzyme-linked immunosorbent assay kit. The number of oxalate crystal deposits in the kidneys was measured using a hematoxylin and eosin stain. Reverse transcriptase PCR (RT-PCR) was used to detect and quantify superoxide dismutase (SOD) mRNA and osteopontin mRNA. Immunohistochemical staining techniques were used to measure SOD and osteopontin protein expression […]. Blood chemistry was also studied to measure levels of creatinine, uric acid, phosphate, blood urea nitrogen (BUN), and malondialdehyde (MDA) in the subjects.

MDCK I cells [4] = test: [14C]COM crystal binding assay; assay type: cell-based, Canine
Protocol: Calcium oxalate monohydrate (COM) crystals were prepared from supersaturated solutions. To prepare radioactive COM crystals, [^14C]oxalic acid (30-60 mCi/mmol; ICN Biomedicals, Irivine, Calif., USA) was added to a sodium oxalate solution, producing a specific activity of 10^5 cpm/mL, and sufficient calcium chloride was then added to form a supersaturated solution. […] Dulbecco-Vogt modified Eagle's essential medium (DMEM; GIBCO, Life Technologies Inc., NY), antibiotic-antimycotics were purchased from GIBCO (Grand island, NY). Fetal bovine serum (FBS) was from JRH (Lenexa, Kans.). HEPES (N-[2-hydroxyethyl]piperazine-N′-[2-ethanesulfonic acid]), sodium bicarbonate, MTT (3-(4,5-dimethylthiazol-2-yl)-2,5-diphenyltetrazolium bromide, BSA (bovine serum albumin were obtained from Sigma Chemical Co. (St. Louis, Mo.).
as §1
MDCK I cells were treated with various concentrations (1, 5 and 10 μM) of PGG for 15 min or 24 h with and without wound damage and washed with phosphate-buffered saline (PBS, pH 7.4). Then [^14C] calcium oxalate monohydrate (COM) crystals were added to MDCK 1 cells, until a final concentration of 200 μg/mL (41.6 μg/cm^2 of cells) was achieved. The culture dishes were gently agitated for 5 seconds to uniformly distribute the crystals so that they settled to the surface of the cell monolayer under the force of gravity. After 2 min, the buffer was aspirated and the cells were washed 3 times with PBS. The cells and adherent crystals were then liquefied in 1 mL of 10% NaOH for 1 h and transferred to a scintillation vial containing 4.5 mL of Ecoscient (National Diagnostics, E. Palmetto, Fla., USA). The amount of radioactivity was measured, as described previously (See Riese, R. J. et al. Am J. Physiol (1992) 262: F177-84). Similarly, to precoat the [^14C]COM crystals with PGG, 0.4 mg [^14C]COM crystals were placed in a 5-mL tube containing 2 mL of a solution containing various concentrations (1, 5 and 10 μM) of PGG diluted in PBS. The crystals were incubated under end-over-end rotation for 15 min at room temperature, pelleted by centrifugation at 2,000 r.p.m. for 5 min, washed with PBS and then resuspended in 2 mL PBS. Two minutes later, the crystal binding activity was measured as described above.

MDCK I cells [5] = test: Wound healing assay (migration after scrape wounding); assay type: cell-based, Canine; conditions: Canis lupus familiaris, 24 h, FIG. 3, read-out: inhibiting wound healing (migration after scrape wounding)
Protocol: as §1
MDCK I cells were seeded in a 35-mm plastic plate to confluent status overnight and incubated with serum-free medium for 6 h. A plastic pipette tip (200 μl size) was used to scrape a line between the MDCK1 cells that was approximately 2 to 3 mm wide across the entire culture dish. The medium was replaced by serum-free medium including various concentrations (1, 5 and 10 μM) of PGG. After incubation at 37° C. for 24 h, each plate was photographed (100×) and quantified.

For `O=C(OC[C@H]1O[C@@H](OC(=O)c2cc(O)c(O)c(O)c2)[C@H](OC(=O)c2cc(O)c(O)c(O)c2)[C@@H](OC(=O)c2cc(O)c(O)c(O)c2)[C@@H]1OC(=O)c1cc(O)c(O)c(O)c1)c1cc(O)c(O)c(O)c1` [PGG, 1,2,3,4,6-penta-O-galloyl-beta-D-glucose], the “body weight of mice, PGG versus control groups” value ([1]; FIG. 7) was “no significant difference”, the hematological values ([1]; FIG. 9) was “did not affect” and the “GOT and GPT levels” value ([1]; FIG. 10) was “did not affect”. The “shapes and weights of organs (spleen, liver, kidney, lung)” value ([1]; FIGS. 8 and 11) was “did not affect”, the “total cell hyaluronan expression by wounded monolayers (Western blot), effect versus 15 min” value (hyaluronan; 24 hours exposure, 1-10 μM, FIG. 6B) was “slightly more pronounced” and the “hyaluronan expression on the surface of wounded MDCK 1 cells (confocal microscopy)” value (hyaluronan; PGG treatment 15 minutes or 24 hours, concentration dependent, FIG. 6A) was “attenuated”. For the same molecule, the “total cell hyaluronan expression by wounded monolayers (Western blot)” value (hyaluronan; within 15 minutes of PGG addition, FIG. 6B) was “decreased”, the “cytotoxicity against MDCK I cells” value (MDCK I cells [2]; concentrations up to 25 uM, 24 h, FIG. 1) was “did not exert any significant cytotoxicity” and the “cytotoxicity on MDCK I cells (FIG. 1 legend)” value (MDCK I cells [2]; except at high concentrations) was “lack of cytotoxicity”. The “survival rate compared with normal group” value ([3]; 20 mg/kg PGG) was “mirrored that of those in the normal group”, the “Serum BUN (mean ± SD)” value ([3]; PGG 4 mg/kg + EG) was 24.6 ± 3.9 mg/dL and the “Serum Calcium (mean ± SD)” value ([3]; PGG 4 mg/kg + EG) was 10.9 ± 1.1 mg/dL. For the same molecule, the “Serum Creatinine (mean ± SD)” value ([3]; PGG 4 mg/kg + EG) was 0.6 ± 0.5 mg/dL, the “Serum Phosphate (mean ± SD)” value ([3]; PGG 4 mg/kg + EG) was 10.7 ± 1.4 mg/dL and the “Serum Uric acid (mean ± SD)” value ([3]; PGG 4 mg/kg + EG) was 2.9 ± 3.2 mg/dL. The “Urine Calcium” value ([3]; PGG 4 mg/kg + EG) was 2.95 ± 0.31, the “Urine Mean Vol ± SD” value ([3]; PGG 4 mg/kg + EG) was 33.0 ± 3.74 mL and the “Urine Mean pH ± SD” value ([3]; PGG 4 mg/kg + EG) was 6.7 ± 1.2. The “Survival (%)” value ([3]; PGG 4 mg/kg) was 83%, the “Serum BUN (mean ± SD)” value ([3]; PGG 20 mg/kg + EG) was 23.3 ± 3.7 mg/dL and the “Serum Calcium (mean ± SD)” value ([3]; PGG 20 mg/kg + EG) was 10.5 ± 0.3 mg/dL. The “Serum Creatinine (mean ± SD)” value ([3]; PGG 20 mg/kg + EG) was 0.6 ± 0.1 mg/dL, the “Serum Phosphate (mean ± SD)” value ([3]; PGG 20 mg/kg + EG) was 9.4 ± 0.8 mg/dL and the “Serum Uric acid (mean ± SD)” value ([3]; PGG 20 mg/kg + EG) was 1.6 ± 1.0 mg/dL. For the same molecule, the “Urine Calcium” value ([3]; PGG 20 mg/kg + EG) was 3.52 ± 0.31, the “Urine Mean Vol ± SD” value ([3]; PGG 20 mg/kg + EG) was 34.7 ± 3.59 mL and the “Urine Mean pH ± SD” value ([3]; PGG 20 mg/kg + EG) was 7.1 ± 0.8. For the same molecule, the “Survival (%)” value ([3]; PGG 20 mg/kg) was 100%, the “survival time of the rats” value ([3]; upon administration of PGG, FIG. 12 and Table 4) was “increased” and the “number of stones (calcium oxalate in urine) versus stone group” value ([3]; urine at 21 days, FIG. 14) was “considerably less”. For the same molecule, the “COM crystal adhesion to MDCK I cells” value (MDCK I cells [4]; PGG added to the buffer, concentration-dependent, FIG. 4A) was “significantly reduced”, the “COM adhesion to scrape-wounded MDCK I cells” value (MDCK I cells [4]; after 15 min or 24 h incubation time, FIGS. 2A and 2B) was “significantly inhibited” and the “crystal binding by PGG-pretreated MDCK I cells” value (MDCK I cells [4]; cells pretreated 15 minutes or 24 hours, FIG. 5) was “bound less crystals”. The “binding of PGG-precoated COM crystals to cells” value (MDCK I cells [4]; crystals precoated with PGG 15 min, concentration-dependent, FIG. 4B) was “decrease their subsequent binding to cells”, the inhibition at 1 µM (MDCK I cells [5]; 1 μM PGG) was 2% and the inhibition at 5 µM (MDCK I cells [5]; 5 μM PGG) was 26%. For the same molecule, the inhibition at 10 µM (MDCK I cells [5]; 10 μM PGG) was 49%.
